Laboratory results taken from US20230348415A1, “BISPECIFIC ANTAGONISTS OF RETINOL-BINDING PROTEIN 4 THAT STABILIZE TRANSTHYRETIN TETRAMERS, THEIR PREPARATION, AND USE IN THE TREATMENT OF COMMON AGE-RELATED COMORBIDITIES” (The Trustees of Columbia University in the City of New York, priority 2020, published 2023).
Values after ≈ are worked out from the molar mass of the structure shown. “Also recorded” adds a separate entry of the source.

Columns and labels:
[1] = target: TTR (Homo sapiens (Human), UniProt P02766); assay: Acid-induced TTR aggregation assay; format: biochemical; conditions: 50 μM compound, pH 4.0, 72 h, 37° C.
Protocol: FIG. 6. […] After incubation in the presence of 50 μM Tafamidis, 50 μM Benzbromarone and 50 μM (±)-44, samples were crosslinked and subjected to SDS-PAGE followed by western blotting with TTR antibodies. The representative blot of at least three independent experiments is presented. (B, C), Bar graphs represent pixel volumes of TTR high molecular weight aggregates (B) and monomers (C). The vertical axes represent the ratio of pixel volume means±S.D. of the scanned bands on the immunoblots in arbitrary units. Statistical significance was determined by one-way ANOVA with Holm-Sidak post hoc test; *, p≤0.05; **, p≤0.01; ***, p≤0.001; ****, p≤0.0001 compare to TTR aggregation (pH 4.0)+DMSO group, #, p≤0.05; ##, p≤0.01; ###, p≤0.001; ####, p≤0.0001 compare to TTR without aggregation (pH 7.5) group.
The ability of test compounds to prevent TTR aggregation was evaluated under the acidic conditions that favor TTR aggregation and fibril formation. […] At the end of the incubation, 3.5 μl 500 mM sodium phosphate (Sigma #S5136) buffer pH=8.0 was added to each sample for neutralization and 0.6 μl 5% CHAPS (Sigma #C5070) as a detergent to prevent reassociation of protein. The cross-linking was performed by adding 1.5 μl 5% glutaraldehyde solution (Sigma #G6257). After 4 min, the reaction was stopped by the addition of 2.5 μl freshly made 5% NaBH4. Samples were subjected to TTR western blotting with prealbumin antibodies (1:500; Dako #A0002). Band intensity for TTR monomer and TTR aggregates was quantified from scanned images of the blots.

[2] = Kinetic solubility assay; format: physicochemical; conditions: PBS (pH 7.4)
Protocol: Kinetic aqueous solubility determination for compound (±)-44 in PBS (pH 7.4) was conducted by Eurofins using UV detection (230 nm). […] In addition, chromatographic purity (%) was defined as the peak area of the principal peak relative to the total integrated peak area in the HPLC chromatogram of the calibration standard. A chromatogram of the calibration standard of each test compound, along with a UV/VIS spectrum with labeled absorbance maxima, was generated.

[3] = Metabolic stability and clearance in mouse liver microsomes; format: in vitro ADME; conditions: 30 minute incubation
Protocol: (§1) The results of metabolic stability determinations for novel compounds and testosterone (positive control) were conducted in the presence of human, rat, mouse, and monkey liver microsomes. Values shown are percent of parent remaining after a 30 minute incubation. All measurements were done in duplicate. Assay results for testosterone were within an acceptable range.
(§2) Mixed-gender human liver microsomes (Lot #1710084), male Sprague-Dawley rat liver microsomes (Lot #1610290), male CD-1 mouse liver microsomes (Lot #1710069), and male Cynomolgous liver microsomes (Lot #1510193) were purchased from XenoTech. The reaction mixture, minus NADPH, was prepared as described below. The test article was added into the reaction mixture at a final concentration of 1 μM. The control compound, testosterone, was run simultaneously with the test article in a separate reaction. An aliquot of the reaction mixture (without cofactor) was equilibrated in a shaking water bath at 37° C. for 3 minutes. The reaction was initiated by the addition of cofactor, and the mixture was incubated in a shaking water bath at 37° C. Aliquots (100 μL) were withdrawn at 0, 10, 20, 30, and 60. […] Half-lives were calculated using GraphPad software, fitting to a single-phase exponential decay equation.

[4] = Metabolic stability and clearance in cynomolgus monkey liver microsomes; format: in vitro ADME; conditions: 30 minute incubation
Protocol: as §1, §2

[5] = target: hERG (Homo sapiens (Human), UniProt Q12809); assay: CiPA hERG QPatch Assay; format: cell-based; conditions: five-point concentration-response, n = 2
[6] = target: serum RBP4 (Mus musculus (Mouse), UniProt Q00724); assay: Serum RBP4 after long-term oral dosing in Abca4−/−/Rdh8−/− mice; format: in vivo; conditions: 25 mg/kg daily in chow
Protocol: FIG. 9. Effect of the long-term oral (±)-44 administration in Abca4^−/−/Rdh8^−/− mice on serum RBP4 levels. Serum RBP4 levels were measured in vehicle-treated Abca4^−/−/Rdh8^−/− mice (squares) and (±)-44-treated Abca4^−/−/Rdh8^−/− mice (triangles) at the indicated time points. […] Error bars show S.D. Each data point on the graph represents a serum RBP4 concentration from an individual animal.
Blood samples were collected from a tail vein. Whole blood was drawn into a centrifuge tube and was allowed to clot at room temperature for 30 minutes followed by centrifugation at 2000 g for 15 minutes at […] to collect serum. Aliquots of plasma samples collected in the mouse pharmacokinetic study were analyzed for the RBP4 concentration using the RBP4 (mouse/rat) dual ELISA kit (AdipoGen, San Diego, CA) following the manufacturer's instructions. In adi-hRBP4 transgenic mouse experiments, blood samples were collected from a tail vein. […] Mouse serum RBP4 (produced predominantly in the liver) was measured using the RBP4 (mouse/rat) dual ELISA kit (AdipoGen, San Diego, CA; catalog number AG-45A-0012YTP-KI01)
(±)-44 was formulated into a Picolab 5053 chow to ensure a daily dosing of 25 mg/kg of (±)-44. […] Following the 10 weeks of dosing, the eyecups of treated and untreated Abca4^−/−/Rdh8^−/− mice as well as the eyecups of the reference wild type mice were collected for the quantitative A2E analysis.

hERG, sequence (Q12809 whole entry): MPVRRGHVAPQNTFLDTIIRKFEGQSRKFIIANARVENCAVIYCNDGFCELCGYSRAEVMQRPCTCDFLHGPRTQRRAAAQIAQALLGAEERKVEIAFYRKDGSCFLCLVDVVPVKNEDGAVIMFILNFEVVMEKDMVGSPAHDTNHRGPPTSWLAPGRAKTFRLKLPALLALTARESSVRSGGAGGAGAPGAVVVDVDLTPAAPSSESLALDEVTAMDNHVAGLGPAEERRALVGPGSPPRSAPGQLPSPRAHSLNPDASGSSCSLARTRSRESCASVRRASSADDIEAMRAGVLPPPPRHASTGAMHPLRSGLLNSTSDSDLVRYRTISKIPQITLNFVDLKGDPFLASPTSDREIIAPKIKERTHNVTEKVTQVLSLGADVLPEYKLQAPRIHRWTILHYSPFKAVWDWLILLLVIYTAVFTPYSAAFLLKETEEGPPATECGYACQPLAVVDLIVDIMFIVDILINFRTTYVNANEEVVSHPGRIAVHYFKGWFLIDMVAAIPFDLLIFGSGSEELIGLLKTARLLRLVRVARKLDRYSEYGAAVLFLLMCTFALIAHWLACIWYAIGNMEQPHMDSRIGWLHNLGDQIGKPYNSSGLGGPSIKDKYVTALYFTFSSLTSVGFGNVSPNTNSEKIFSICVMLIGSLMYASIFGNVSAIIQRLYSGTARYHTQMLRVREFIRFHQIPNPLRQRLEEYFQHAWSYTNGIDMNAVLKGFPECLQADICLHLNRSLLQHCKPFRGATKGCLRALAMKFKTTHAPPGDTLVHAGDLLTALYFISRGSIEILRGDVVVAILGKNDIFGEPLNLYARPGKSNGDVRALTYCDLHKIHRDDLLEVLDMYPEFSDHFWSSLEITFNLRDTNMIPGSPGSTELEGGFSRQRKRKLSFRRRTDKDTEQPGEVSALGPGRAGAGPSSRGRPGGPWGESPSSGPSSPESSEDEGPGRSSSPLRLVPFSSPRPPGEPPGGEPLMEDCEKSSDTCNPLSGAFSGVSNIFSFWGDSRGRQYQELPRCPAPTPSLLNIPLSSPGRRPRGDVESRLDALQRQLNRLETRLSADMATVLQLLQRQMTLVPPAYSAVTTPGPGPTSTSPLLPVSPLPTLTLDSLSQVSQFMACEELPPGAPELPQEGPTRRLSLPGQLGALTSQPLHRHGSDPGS

## Cc1cc(C(=O)O)nc(N2CCC(COc3ccccc3C(F)(F)F)C2)n1 (racemic) [Compound (±)-44, (±)-6-Methyl-2-(3-((2-(trifluoromethyl)phenoxy)methyl)pyrrolidin-1-yl)pyrimidine-4-carboxylic Acid]
[1]
  formation of high molecular weight TTR species: reduces the formation of high molecular weight TTR forms; also recorded: significantly reduced the formation of high molecular weight TTR species
[1]; vs DMSO
  TTR monomer band intensities: Significant increase
  fold reduction in formation of high molecular weight aggregates: 4.7 fold
[2]
  solubility kinetic: 187.4 µM (≈ 71.5 µg/mL)
[3]
  Liver Microsomal Stability (% remaining at 30 min), MLM: 95%
[4]
  Liver Microsomal Stability (% remaining at 30 min), cyno LM: 103%
[5]
  IC50: > 30 µM
[6]; 10 weeks
  serum RBP4 reduction compared to untreated Abca4−/−/Rdh8−/− mice: 84%
[6]; week 10, Abca4−/−/Rdh8−/− mice
  serum RBP4 reduction compared with baseline: 76%
